Assay results from ChEMBL document CHEMBL1201862, “PubChem BioAssay data set” (2004).
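Briefly, cells in 96-well plates were exposed to five compound concentrations for 48 h, and endpoints were estimated by linear interpolation. Abbreviation: GI50, concentration required for 50% inhibition of growth.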 Activity calls are given as the source filed them. No stated cut-off is given here; in the data, active = GI50 up to about 1.1 µM and inactive = higher.

How the values were obtained:
Test in all cases: NCI-60 cell line screen, 48 h
SK-MEL-28 = tested on: SK-MEL-28
SF-295 = tested on: SF-295
SW-620 = tested on: SW-620
HCT-15 = tested on: HCT-15
UO-31 = tested on: UO-31
NCI-H460 = tested on: NCI-H460
HOP-62 = tested on: HOP-62
UACC-257 = tested on: UACC-257
LXFL 529 = tested on: LXFL 529
OVCAR-4 = tested on: OVCAR-4
SN12C = tested on: SN12C
K562 = tested on: K562
SF-539 = tested on: SF-539
SK-OV-3 = tested on: SK-OV-3
NCI-H522 = tested on: NCI-H522
SNB-75 = tested on: SNB-75
T47D = tested on: T47D
MCF7 = tested on: MCF7
BT-549 = tested on: BT-549
A498 = tested on: A498

Compound | GI50 (SK-MEL-28) | GI50 (SF-295) | GI50 (SW-620) | GI50 (HCT-15) | GI50 (UO-31) | GI50 (NCI-H460) | GI50 (HOP-62) | GI50 (UACC-257) | GI50 (LXFL 529) | GI50 (OVCAR-4) | GI50 (SN12C) | GI50 (K562) | GI50 (SF-539) | GI50 (SK-OV-3) | GI50 (NCI-H522) | GI50 (SNB-75) | GI50 (T47D) | GI50 (MCF7) | GI50 (BT-549) | GI50 (A498)
COc1ccccc1NC(=O)/C(=C/c1ccccc1)C(C)=O | 62.4 µM (inactive) | 27.5 µM (inactive) | 36.9 µM (inactive) | 37.2 µM | 56.8 µM (inactive) | 37.2 µM (inactive) | 59.4 µM (inactive) | 47 µM (inactive) | 43.9 µM (inactive) | 64.4 µM (inactive) | 42.2 µM (inactive) | 27.6 µM (inactive) | 23.6 µM (inactive) | 44.5 µM (inactive) | 25.5 µM (inactive) | – | – | – | – | –
COc1ccc(NC(=O)CC/C(CC(=O)c2ccccc2Cl)=N\Nc2nnc(C)n2N)cc1 | > 100 µM (inactive) | > 100 µM (inactive) | > 100 µM (inactive) | > 100 µM | > 100 µM (inactive) | > 100 µM (inactive) | – | > 100 µM (inactive) | > 100 µM (inactive) | > 100 µM (inactive) | > 100 µM (inactive) | 61.9 µM (inactive) | > 100 µM (inactive) | > 100 µM (inactive) | – | – | – | – | – | –
C/C(=N/O)c1ccc2c(c1)/C(=N/O)c1cc(/C(C)=N/O)ccc1-2 | 17.3 µM (inactive) | 15.3 µM (inactive) | 14.5 µM (inactive) | 14.1 µM | 15.1 µM (inactive) | 17.7 µM (inactive) | 13.4 µM (inactive) | 2.39 µM (inactive) | 14.3 µM (inactive) | 16.3 µM (inactive) | 16.3 µM (inactive) | 17.8 µM (inactive) | 15.5 µM (inactive) | 21.4 µM (inactive) | 18.9 µM (inactive) | 17.9 µM (inactive) | – | – | – | –
CCCCCCCCCCCCCCCCCCOCC(COCCOCC[N+]1(CCCCCC(=O)[O-])CCCC1)Oc1ncccn1 (stereo not given) | 6.68 µM (inactive) | 4.88 µM (inactive) | 4.57 µM (inactive) | 12.8 µM | 10.1 µM (inactive) | 2.36 µM (inactive) | 1.88 µM (inactive) | 8.02 µM (inactive) | – | 2.2 µM (inactive) | 4.44 µM (inactive) | 2.19 µM (inactive) | 4.36 µM (inactive) | 3.87 µM (inactive) | 1.34 µM (inactive) | 2.61 µM (inactive) | 5.13 µM (inactive) | 4.45 µM (inactive) | 7.29 µM (inactive) | 5.94 µM (inactive)
Cc1cc2occ(S(=O)(=O)NC(=O)Nc3ccc(Cl)cc3)c(=O)c2c(=O)o1 | > 100 µM (inactive) | > 100 µM (inactive) | > 100 µM (inactive) | 9.18 µM | > 100 µM (inactive) | > 100 µM (inactive) | > 100 µM (inactive) | > 100 µM (inactive) | – | > 100 µM (inactive) | > 100 µM (inactive) | > 100 µM (inactive) | > 100 µM (inactive) | > 100 µM (inactive) | > 100 µM (inactive) | > 100 µM (inactive) | > 100 µM (inactive) | > 100 µM (inactive) | > 100 µM (inactive) | > 100 µM (inactive)
COC(=O)[C@@H]1[C@@H]2NC(=S)N[C@@]1(C)Oc1ccccc12 | > 100 µM (inactive) | 38.5 µM (inactive) | 55.7 µM (inactive) | 32.1 µM | > 100 µM (inactive) | 44.2 µM (inactive) | 89.3 µM (inactive) | > 100 µM (inactive) | – | > 100 µM (inactive) | 46.2 µM (inactive) | 29.5 µM (inactive) | 37.7 µM (inactive) | 47.8 µM (inactive) | 31.6 µM (inactive) | 27.4 µM (inactive) | > 100 µM (inactive) | 45.7 µM (inactive) | 83.6 µM (inactive) | > 100 µM (inactive)
CCNC(=S)N/N=C/c1cc([N+](=O)[O-])ccc1O | 51.8 µM (inactive) | 35.6 µM (inactive) | 40.5 µM (inactive) | 11.6 µM | 22.3 µM (inactive) | 9.27 µM (inactive) | 32.7 µM (inactive) | 24.6 µM (inactive) | – | 15.6 µM (inactive) | 31.5 µM (inactive) | 20.6 µM (inactive) | 35.4 µM (inactive) | 15 µM (inactive) | 21.5 µM (inactive) | 52 µM (inactive) | 19.9 µM (inactive) | 0.307 µM (active) | 36.9 µM (inactive) | 13.2 µM (inactive)
CN(C(=O)c1ccco1)C(=S)N1CCN(c2ccccc2)CC1 | > 100 µM (inactive) | > 100 µM (inactive) | > 100 µM (inactive) | > 100 µM | > 100 µM (inactive) | > 100 µM (inactive) | > 100 µM (inactive) | > 100 µM (inactive) | > 100 µM (inactive) | > 100 µM (inactive) | > 100 µM (inactive) | > 100 µM (inactive) | > 100 µM (inactive) | > 100 µM (inactive) | > 100 µM (inactive) | > 100 µM (inactive) | – | – | – | –
CC(=O)Nc1ccc2cc3[nH]c4cc(NC(C)=O)ccc4c3nc2c1 | > 100 µM (inactive) | > 100 µM (inactive) | > 100 µM (inactive) | > 100 µM | > 100 µM (inactive) | > 100 µM (inactive) | > 100 µM (inactive) | > 100 µM (inactive) | – | > 100 µM (inactive) | > 100 µM (inactive) | 77.1 µM (inactive) | > 100 µM (inactive) | > 100 µM (inactive) | > 100 µM (inactive) | > 100 µM (inactive) | 31.3 µM (inactive) | > 100 µM (inactive) | > 100 µM (inactive) | > 100 µM (inactive)
Cc1nc2sccn2c1C(=O)NN | > 100 µM (inactive) | > 100 µM (inactive) | > 100 µM (inactive) | > 100 µM | – | > 100 µM (inactive) | > 100 µM (inactive) | > 100 µM (inactive) | > 100 µM (inactive) | – | > 100 µM (inactive) | > 100 µM (inactive) | > 100 µM (inactive) | > 100 µM (inactive) | > 100 µM (inactive) | – | – | – | – | –
COc1ccc(NCC(=O)Nn2c(-c3ccccc3)nc3ccccc3c2=O)cc1 | 74.5 µM (inactive) | > 100 µM (inactive) | 28.2 µM (inactive) | 54 µM | > 100 µM (inactive) | 51.1 µM (inactive) | 86.1 µM (inactive) | 52.2 µM (inactive) | – | 33.7 µM (inactive) | 36.6 µM (inactive) | 24.5 µM (inactive) | 39.2 µM (inactive) | > 100 µM (inactive) | > 10 µM (inactive) | 44.4 µM (inactive) | 29.9 µM (inactive) | 18.2 µM (inactive) | 23.3 µM (inactive) | 23.3 µM (inactive)
CCOC(=O)CSc1nc(-c2ccccc2)c(C#N)c(=O)[nH]1 | > 100 µM (inactive) | > 100 µM (inactive) | > 100 µM (inactive) | > 100 µM | > 100 µM (inactive) | > 100 µM (inactive) | > 100 µM (inactive) | > 100 µM (inactive) | – | > 100 µM (inactive) | > 100 µM (inactive) | > 100 µM (inactive) | > 100 µM (inactive) | > 100 µM (inactive) | 21.4 µM (inactive) | > 100 µM (inactive) | > 100 µM (inactive) | > 100 µM (inactive) | > 100 µM (inactive) | > 100 µM (inactive)
CCCCc1c2c(nc3c1CCc1cc4cc5c(nc4nc1-3)-c1nc3c(c(CCCC)c1CC5)CCC/C3=C\c1ccccc1)/C(=C/c1ccccc1)CCC2 | > 100 µM (inactive) | > 100 µM (inactive) | > 100 µM (inactive) | > 100 µM | > 100 µM (inactive) | > 100 µM (inactive) | > 100 µM (inactive) | > 100 µM (inactive) | > 100 µM (inactive) | – | > 100 µM (inactive) | > 100 µM (inactive) | > 100 µM (inactive) | > 100 µM (inactive) | > 100 µM (inactive) | > 100 µM (inactive) | – | – | – | –
O=C(O)c1cccc(CC(Br)C(=O)O)c1 (stereo not given) | > 100 µM (inactive) | > 100 µM (inactive) | > 100 µM (inactive) | > 100 µM | > 100 µM (inactive) | > 100 µM (inactive) | > 100 µM (inactive) | > 100 µM (inactive) | – | > 100 µM (inactive) | > 100 µM (inactive) | > 100 µM (inactive) | > 100 µM (inactive) | > 100 µM (inactive) | > 100 µM (inactive) | > 100 µM (inactive) | > 100 µM (inactive) | > 100 µM (inactive) | > 100 µM (inactive) | > 100 µM (inactive)
CCC(C)(C)n1c(C)nc2c1C(=O)c1ccccc1C2=O | 46.8 µM (inactive) | 38.9 µM (inactive) | 44.7 µM (inactive) | 23.1 µM | 25.7 µM (inactive) | 12.2 µM (inactive) | 30.5 µM (inactive) | 33.5 µM (inactive) | 13.9 µM (inactive) | 37.3 µM (inactive) | 31.5 µM (inactive) | 13.6 µM (inactive) | 26.5 µM (inactive) | 44.9 µM (inactive) | 28.4 µM (inactive) | 27.2 µM (inactive) | – | – | – | –
COc1cc2cc(C(=O)N3CC(CCl)c4ccc(N(C)C)cc43)[nH]c2c(OC)c1OC (stereo not given) | 0.0556 µM (active) | 0.0589 µM (active) | 0.12 µM (active) | 0.145 µM | 0.0381 µM (active) | 0.0269 µM (active) | 0.128 µM (active) | 0.139 µM (active) | – | 0.124 µM (active) | 0.198 µM (active) | 0.0675 µM (active) | 0.0559 µM (active) | 0.261 µM (active) | 0.0127 µM (active) | 0.29 µM (active) | 0.078 µM (active) | 0.0207 µM (active) | 0.131 µM (active) | 0.0153 µM (active)
